Laboratory results published in the supplement of paper PMC10307832.

Experiments:
Assay in all cases: relative viability (nuclei count vs DMSO), 5 days (fraction); higher = more cells survive
Metformin + Vorinostat = compound: CN(C)C(=N)NC(=N)N [Metformin] + O=C(CCCCCCC(=O)Nc1ccccc1)NO [Vorinostat] (partner 1 µM)
Procedure, shortened: (§1)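 Cells from lung cancer lines were seeded into 1536-well plates and, one day later, dosed by pin tool. Treatments were either a single drug or a fixed dose of an anchor drug with five library-drug doses (not always all listed) in √10 steps. After 5 days, nuclei were stained in a one-step fixation (final 0.05% Triton X-100, 1% formaldehyde, 1 ug/ml Hoechst) and counted on 4× images, and relative viability is the treated-to-vehicle nuclei ratio, as the median of duplicate plates.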

Metformin + Luminespib = compound: CN(C)C(=N)NC(=N)N [Metformin] + CCNC(=O)c1noc(-c2cc(C(C)C)c(O)cc2O)c1-c1ccc(CN2CCOCC2)cc1 [Luminespib] (partner 0.01 µM)
Procedure, shortened: as §1

Metformin + Bortezomib = compound: CN(C)C(=N)NC(=N)N [Metformin] + CC(C)C[C@H](NC(=O)[C@H](Cc1ccccc1)NC(=O)c1cnccn1)B(O)O [Bortezomib] (partner 0.002 µM)
Procedure, shortened: as §1

Apatinib + Pictilisib = compound: N#CC1(c2ccc(NC(=O)c3cccnc3NCc3ccncc3)cc2)CCCC1 [Apatinib] + CS(=O)(=O)N1CCN(Cc2cc3nc(-c4cccc5[nH]ncc45)nc(N4CCOCC4)c3s2)CC1 [Pictilisib] (partner 1 µM)
Procedure, shortened: as §1

## NCI-H460
Metformin + Vorinostat; first compound 31.62 µM
  relative viability: 0.667
Metformin + Vorinostat; first compound 100 µM
  relative viability: 0.542
Metformin + Vorinostat; first compound 316.23 µM
  relative viability: 0.581
Metformin + Vorinostat; first compound 1000 µM
  relative viability: 0.659
Metformin + Luminespib; first compound 10 µM
  relative viability: 0.048
Metformin + Luminespib; first compound 31.62 µM
  relative viability: 0.0359
Metformin + Luminespib; first compound 100 µM
  relative viability: 0.0322
Metformin + Luminespib; first compound 316.23 µM
  relative viability: 0.0306
Metformin + Luminespib; first compound 1000 µM
  relative viability: 0.0333
Metformin + Bortezomib; first compound 31.62 µM
  relative viability: 1.12
Metformin + Bortezomib; first compound 100 µM
  relative viability: 1.11
Metformin + Bortezomib; first compound 316.23 µM
  relative viability: 1.06
Metformin + Bortezomib; first compound 1000 µM
  relative viability: 1.19
Apatinib + Pictilisib; first compound 0.08 µM
  relative viability: 0.335
Apatinib + Pictilisib; first compound 0.253 µM
  relative viability: 0.374
Apatinib + Pictilisib; first compound 0.8 µM
  relative viability: 0.452
Apatinib + Pictilisib; first compound 2.53 µM
  relative viability: 0.391
Apatinib + Pictilisib; first compound 8 µM
  relative viability: 0.458
